Data: ChEMBL document CHEMBL1201862, “PubChem BioAssay data set” (2004)
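Where inhibition never reached the appropriate level, the endpoint shown equals the highest concentration tested. Otherwise, values were interpolated linearly from a five-concentration, 48-hour dose response in 96-well plates. Here, GI50 denotes the concentration required for 50% inhibition of growth.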 Active and inactive are the calls of the source. No stated cut-off is given here; in the data, active = GI50 up to about 1.1 µM and inactive = higher.

Tests used:
Experiment in all cases: NCI-60 cell line screen, 48 h
HCC 2998 = tested on: HCC 2998
KM-20L2 = tested on: KM-20L2
SK-MEL-28 = tested on: SK-MEL-28
UACC-257 = tested on: UACC-257
DMS-273 = tested on: DMS-273
ACHN = tested on: ACHN
SF-295 = tested on: SF-295
HOP-62 = tested on: HOP-62
NCI-H23 = tested on: NCI-H23
NCI-H522 = tested on: NCI-H522
RXF 393 = tested on: RXF 393
OVCAR-8 = tested on: OVCAR-8
RPMI-8226 = tested on: RPMI-8226
UACC-62 = tested on: UACC-62
A549 = tested on: A549
TK-10 = tested on: TK-10
SF-539 = tested on: SF-539
KM12 = tested on: KM12
LOX IMVI = tested on: LOX IMVI
IGROV-1 = tested on: IGROV-1
CCRF-CEM = tested on: CCRF-CEM
EKVX = tested on: EKVX
NCI-H226 = tested on: NCI-H226
SR = tested on: SR
SNB-75 = tested on: SNB-75
HT-29 = tested on: HT-29
UO-31 = tested on: UO-31
HCT-15 = tested on: HCT-15
SK-MEL-2 = tested on: SK-MEL-2
SNB-19 = tested on: SNB-19
K562 = tested on: K562
M14 = tested on: M14
SN12C = tested on: SN12C
786-0 = tested on: 786-0
HL-60 = tested on: HL-60
SNB-78 = tested on: SNB-78
SF-268 = tested on: SF-268
OVCAR-5 = tested on: OVCAR-5
CAKI-1 = tested on: CAKI-1
COLO 205 = tested on: COLO 205
U-251 = tested on: U-251
MOLT-4 = tested on: MOLT-4
SW-620 = tested on: SW-620
OVCAR-3 = tested on: OVCAR-3
A498 = tested on: A498
LXFL 529 = tested on: LXFL 529
OVCAR-4 = tested on: OVCAR-4
NCI-H460 = tested on: NCI-H460
M19-MEL = tested on: M19-MEL
HCT-116 = tested on: HCT-116
SK-OV-3 = tested on: SK-OV-3
XF498 = tested on: XF498
SK-MEL-5 = tested on: SK-MEL-5
DLD-1 = tested on: DLD-1
DMS-114 = tested on: DMS-114

Cc1cc(=O)n2c(cc3cccccc32)n1
GI50 (HCC 2998): > 100 µM (inactive)
GI50 (KM-20L2): > 100 µM (inactive)
GI50 (SK-MEL-28): > 100 µM (inactive)
GI50 (UACC-257): > 100 µM (inactive)
GI50 (DMS-273): > 100 µM (inactive)
GI50 (ACHN): > 100 µM (inactive)
GI50 (SF-295): > 100 µM (inactive)
GI50 (HOP-62): > 100 µM (inactive)
GI50 (NCI-H23): > 100 µM (inactive)
GI50 (NCI-H522): > 100 µM (inactive)
GI50 (RXF 393): > 100 µM (inactive)
GI50 (OVCAR-8): > 100 µM (inactive)
GI50 (RPMI-8226): > 100 µM (inactive)
GI50 (UACC-62): > 100 µM (inactive)
GI50 (A549): > 100 µM (inactive)
GI50 (TK-10): > 100 µM (inactive)
GI50 (SF-539): > 100 µM (inactive)
GI50 (KM12): > 100 µM (inactive)
GI50 (LOX IMVI): > 100 µM (inactive)
GI50 (IGROV-1): > 100 µM (inactive)
GI50 (CCRF-CEM): > 100 µM (inactive)
GI50 (EKVX): > 100 µM (inactive)
GI50 (NCI-H226): > 100 µM (inactive)
GI50 (SR): > 100 µM (inactive)
GI50 (SNB-75): > 100 µM (inactive)
GI50 (HT-29): > 100 µM (inactive)
GI50 (UO-31): > 100 µM (inactive)
GI50 (HCT-15): > 100 µM
GI50 (SK-MEL-2): > 100 µM (inactive)
GI50 (SNB-19): > 100 µM (inactive)
GI50 (K562): > 100 µM (inactive)
GI50 (M14): > 100 µM (inactive)
GI50 (SN12C): > 100 µM (inactive)
GI50 (786-0): > 100 µM (inactive)
GI50 (HL-60): > 100 µM (inactive)
GI50 (SNB-78): > 100 µM (inactive)
GI50 (SF-268): > 100 µM (inactive)
GI50 (OVCAR-5): > 100 µM (inactive)
GI50 (CAKI-1): > 100 µM (inactive)
GI50 (COLO 205): > 100 µM (inactive)
GI50 (U-251): > 100 µM (inactive)
GI50 (MOLT-4): > 100 µM (inactive)
GI50 (SW-620): > 100 µM (inactive)
GI50 (OVCAR-3): > 100 µM (inactive)
GI50 (A498): > 100 µM (inactive)
GI50 (LXFL 529): > 100 µM (inactive)
GI50 (OVCAR-4): > 100 µM (inactive)
GI50 (NCI-H460): > 100 µM (inactive)

[N-]=[N+]=Nc1ccccc1Oc1ccccc1
GI50 (M19-MEL): > 100 µM (inactive)
GI50 (HCC 2998): > 100 µM (inactive)
GI50 (KM-20L2): > 100 µM (inactive)
GI50 (SK-MEL-28): > 100 µM (inactive)
GI50 (UACC-257): > 100 µM (inactive)
GI50 (DMS-273): > 100 µM (inactive)
GI50 (ACHN): > 100 µM (inactive)
GI50 (SF-295): > 100 µM (inactive)
GI50 (HOP-62): > 100 µM (inactive)
GI50 (NCI-H23): > 100 µM (inactive)
GI50 (NCI-H522): > 100 µM (inactive)
GI50 (OVCAR-8): > 100 µM (inactive)
GI50 (RPMI-8226): > 100 µM (inactive)
GI50 (UACC-62): > 100 µM (inactive)
GI50 (A549): > 100 µM (inactive)
GI50 (TK-10): > 100 µM (inactive)
GI50 (SF-539): > 100 µM (inactive)
GI50 (HCT-116): > 100 µM (inactive)
GI50 (KM12): > 100 µM (inactive)
GI50 (LOX IMVI): > 100 µM (inactive)
GI50 (IGROV-1): > 100 µM (inactive)
GI50 (EKVX): > 100 µM (inactive)
GI50 (NCI-H226): > 100 µM (inactive)
GI50 (SR): > 100 µM (inactive)
GI50 (SK-OV-3): > 100 µM (inactive)
GI50 (SNB-75): > 100 µM (inactive)
GI50 (HT-29): > 100 µM (inactive)
GI50 (UO-31): > 100 µM (inactive)
GI50 (HCT-15): > 100 µM
GI50 (SK-MEL-2): > 100 µM (inactive)
GI50 (XF498): > 100 µM (inactive)
GI50 (SNB-19): > 100 µM (inactive)
GI50 (SK-MEL-5): > 100 µM (inactive)
GI50 (DLD-1): > 100 µM (inactive)
GI50 (K562): > 100 µM (inactive)
GI50 (M14): > 100 µM (inactive)
GI50 (SN12C): > 100 µM (inactive)
GI50 (786-0): > 100 µM (inactive)
GI50 (HL-60): > 100 µM (inactive)
GI50 (SNB-78): > 100 µM (inactive)
GI50 (SF-268): > 100 µM (inactive)
GI50 (OVCAR-5): > 100 µM (inactive)
GI50 (CAKI-1): > 100 µM (inactive)
GI50 (COLO 205): > 100 µM (inactive)
GI50 (U-251): > 100 µM (inactive)
GI50 (MOLT-4): > 100 µM (inactive)
GI50 (SW-620): > 100 µM (inactive)
GI50 (OVCAR-3): > 100 µM (inactive)
GI50 (DMS-114): > 100 µM (inactive)
GI50 (A498): > 100 µM (inactive)
GI50 (LXFL 529): > 100 µM (inactive)
GI50 (OVCAR-4): > 100 µM (inactive)
GI50 (NCI-H460): > 100 µM (inactive)
